Experimental data: article PMC12567098, “Multi-Kinase Inhibition by New Quinazoline–Isatin Hybrids: Design, Synthesis, Biological Evaluation and Mechanistic Studies” (Pharmaceuticals, 2025)

Columns and labels:
[1] = test system: MDA-MB-231; assay: MTT cytotoxicity assay, MDA-MB-231; assay type: cell-based; conditions: Homo sapiens, 48 h
Description: (§1) The synthesized isatin–quinazoline compounds (6a–d) were assessed for their cytotoxicity against four cancer cell lines, namely, hepatocellular carcinoma HepG2, breast carcinoma MCF-7, breast adenocarcinoma MDA-MB-231, and cervical carcinoma HeLa, using an MTT colorimetric assay. Doxorubicin and sunitinib were used as positive controls for comparison. The antiproliferative activities are expressed as the median growth inhibitory concentration (IC50) in micromolar range and are described in Table 1.
(§2) Cytotoxicity of the synthesized compounds 6a–d was assessed by performing a colorimetric MTT (3-(4,5-dimethylthiazol-2-yl)-2,5-diphenyltetrazolium bromide) assay. The MTT assay is widely used to measure cell proliferation, cell viability, and cytotoxicity. It is based on reducing MTT dye into formazan crystals by living cells, determining mitochondrial activity.
(§3) 3.4. Biological Screening
(§4) Four cancer celllines; Hepatocellular carcinoma (HepG2), Breast adenocarcinoma (MCF-7), Breast adenocarcinoma (MDA-MB-231), and Cervical carcinoma (HeLa) and normal fibroblast cell line (WI38) used in this study were obtained from American Type Culture Collection (ATCC, USA) via Holding company for biological products and vaccines (VACSERA), Cairo, Egypt. Antibiotic solutions and sterilesolutions were purchased from Sigma-Aldrich.
(§5) 3.4.2. Cytotoxicity Assay
(§6) Cytotoxicity of the synthesized compounds 6a-d was done by performing a colorimetric MTT ( 3-(4,5-dimethylthiazol-2-yl)-2,5-diphenyltetrazolium bromide) assay.[41–43] MTT assay is widely used to measure cell proliferation, cell viability, and cytotoxicity. It is based on reducing MTT dye into formazan crystals by living cells, determining mitochondrial activity.[44] For the assay, cells were seeded in Dulbecco’s modified minimum essential medium (DMEM) at a density of 1.0× 10^4 cells/well in 96-well plates, supplemented with 10% FBS and 5% CO2 at 37 °C for 24 h. To each well, a test compound was added at different concentrations .Each concentration was examined three times. Then the cells were treated with the compounds at 37 °C under 5 % CO2 for 48 h. Following this, MTT dye was added to each well at a final concentration of 0.5 mg/ml. Cells were treated with this tetrazolium dye for 4 h. Next, purple crystals of formazan were noticed in each well, formed as a metabolic product of MTT. These crystals were dissolved by adding 100 µl dimethyl sulfoxide (DMSO), and the absorbance in each well was recorded at 570 nm in a microplate reader (EXL 800, USA). Absorbance at 570nm directly correlates with cell viability. IC50 (μM) values were determined using Graph Pad Prism software version 5 (Graph Pad Software Inc, CA). The cells were also treated with Doxorubicin; a standard anticancer drug used as positive control.

[2] = test system: MCF-7; assay: MTT cytotoxicity assay, MCF-7; assay type: cell-based; conditions: Homo sapiens, MCF7, 48 h
Text: (§7) Doxorubicin and sunitinib were used as positive controls for comparison.
(§8) The MTT assay is widely used to measure cell proliferation, cell viability, and cytotoxicity. It is based on reducing MTT dye into formazan crystals by living cells, determining mitochondrial activity.
as §3
(§9) Four cancer celllines; Hepatocellular carcinoma (HepG2), Breast adenocarcinoma (MCF-7), Breast adenocarcinoma […]
(§10) from American Type Culture Collection (ATCC, USA) via Holding company for biological products and vaccines (VACSERA), Cairo, Egypt. Antibiotic solutions and sterilesolutions were purchased from Sigma-Aldrich.
(§11) 3.4.2. Cytotoxicity Assay […]
(§12) dimethylthiazol-2-yl)-2,5-diphenyltetrazolium bromide) assay.[41–43] MTT assay is widely used to measure cell proliferation, cell viability, and cytotoxicity. It is based on reducing MTT dye into formazan crystals by living cells, determining mitochondrial activity.[44] For the assay, cells were seeded in Dulbecco’s modified minimum essential medium (DMEM) at a density of 1.0× 10^4 cells/well in 96-well plates, supplemented with 10% FBS and 5% CO2 at 37 °C for 24 h. To each well, a test compound was added at different concentrations .Each concentration was examined three times. Then the cells were treated with the compounds at 37 °C under 5 % CO2 for 48 h. Following this, MTT dye was added to each well at a final concentration of 0.5 mg/ml. Cells were treated with this tetrazolium dye for 4 h. Next, […]
(§13) dissolved by adding 100 µl dimethyl sulfoxide (DMSO), and the absorbance in each well was recorded at 570 nm in a […]
(§14) Absorbance at 570nm directly correlates with cell viability. IC50 (μM) values were determined using Graph Pad Prism software version 5 (Graph Pad Software Inc, CA). The cells were also treated with Doxorubicin; a standard anticancer drug used as positive control.

[3] = test system: HepG2; assay: MTT cytotoxicity assay, HepG2; assay type: cell-based; conditions: Homo sapiens, 48 h
Description: as §1, §2, §3, §4, §5, §6

[4] = test system: WI38; assay: MTT cytotoxicity assay, normal fibroblast WI38; assay type: cell-based; conditions: Homo sapiens, WI-38, 48 h, normal fibroblast cell line WI38
Text: as §7, §8, §3, §9, §10, §11, §12, §13, §14

[5] = test system: HeLa; assay: MTT cytotoxicity assay, HeLa; assay type: cell-based; conditions: Homo sapiens, 48 h
Text: as §7, §8, §3, §9, §10, §11, §12, §13, §14

[6] = target: HER2 (Homo sapiens, UniProt P04626); assay: In vitro HER2 kinase inhibitory assay (BPS kit, Kinase-Glo); conditions: read-out: IC50 HER2, 40 min at 30 °C
Sequence of HER2 (P04626 23-1255): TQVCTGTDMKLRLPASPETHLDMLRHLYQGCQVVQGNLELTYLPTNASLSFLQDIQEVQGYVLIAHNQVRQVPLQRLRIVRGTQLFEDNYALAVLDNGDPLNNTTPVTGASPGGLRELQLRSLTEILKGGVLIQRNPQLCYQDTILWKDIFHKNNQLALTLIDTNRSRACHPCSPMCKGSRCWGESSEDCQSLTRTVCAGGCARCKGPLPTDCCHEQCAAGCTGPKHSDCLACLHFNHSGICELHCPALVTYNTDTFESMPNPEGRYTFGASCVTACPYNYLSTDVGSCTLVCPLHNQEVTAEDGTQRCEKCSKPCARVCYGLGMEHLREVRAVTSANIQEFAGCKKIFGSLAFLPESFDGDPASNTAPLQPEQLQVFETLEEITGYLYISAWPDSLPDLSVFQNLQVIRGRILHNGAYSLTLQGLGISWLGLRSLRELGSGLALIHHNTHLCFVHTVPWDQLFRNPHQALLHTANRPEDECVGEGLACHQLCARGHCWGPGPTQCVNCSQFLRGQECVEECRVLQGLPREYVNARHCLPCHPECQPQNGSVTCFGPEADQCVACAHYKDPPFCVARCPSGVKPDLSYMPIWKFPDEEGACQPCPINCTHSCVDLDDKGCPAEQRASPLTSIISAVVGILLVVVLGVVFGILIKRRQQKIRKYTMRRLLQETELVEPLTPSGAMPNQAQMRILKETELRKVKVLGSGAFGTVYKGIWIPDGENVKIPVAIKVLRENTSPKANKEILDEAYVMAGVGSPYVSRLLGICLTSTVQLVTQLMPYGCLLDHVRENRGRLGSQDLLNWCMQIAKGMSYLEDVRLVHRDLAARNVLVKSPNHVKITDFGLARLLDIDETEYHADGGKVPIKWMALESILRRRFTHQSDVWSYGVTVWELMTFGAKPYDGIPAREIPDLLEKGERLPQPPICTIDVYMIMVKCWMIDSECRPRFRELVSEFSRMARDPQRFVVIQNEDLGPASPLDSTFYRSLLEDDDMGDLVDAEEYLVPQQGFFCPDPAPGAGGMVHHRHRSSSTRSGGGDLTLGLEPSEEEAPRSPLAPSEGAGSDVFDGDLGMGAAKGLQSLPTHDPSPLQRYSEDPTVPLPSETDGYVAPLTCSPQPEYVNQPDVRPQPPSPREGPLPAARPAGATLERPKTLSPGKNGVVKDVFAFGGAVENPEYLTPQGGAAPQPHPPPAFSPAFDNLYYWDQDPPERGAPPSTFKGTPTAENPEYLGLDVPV
Description: (§21) In vitro CDK2, EGFR, VEGFR -2, and HER2 Inhibitory Assays
(§22) using CDK2, EGFR, VEGFR -2, and HER2 Kinase Assay Kit (BPS Biosciences, San Diego, CA).[50] At first, CDK2, EGFR,
(§23) initi-ate the catalytic function of the enzymes. Detection reagent (Kinase-Glo® Max reagent) was the added to stop
(§24) the reaction, followed by incubation at room temperature for 15 min. Then the IC50 values were calculated by
(§25) measuring luminescence signal at 450 nm using a plate reader (Tecan Spark® 10M, Männedorf, Switzerland). All
(§26) assays were carried out based on protocol from manufacture. All samples and controls were tested in duplicate.

[7] = test system: Bcl-2; assay: RT-qPCR gene expression analysis, Bcl-2; assay type: cell-based; conditions: HepG2, RT-qPCR, fold vs untreated = 1
Text: (§15) One significant anticancer mechanism is apoptosis. Drugs that induce apoptosis cause simultaneous or subsequent activation of death receptor systems, mitochondrial dysfunction, and caspase proteolytic processing. Thus, the cell death pathway may occur in several locations. In this study, the alteration in Bax, Bcl-2, and caspase-3 and 9 gene expression following the stimulation of apoptosis by 6c in HepG2 cells using the RT-qPCR method and staurosporine as a positive control is reported in Table 4.
(§16) 3.4.5. Gene Expression Analysis
(§17) After the RNA extraction,
(§18) reverse transcriptase enzyme.
(§19) The amplification reactions
(§20) The data were analyzed using a […]

[8] = test system: HepG2 cells; assay: Propidium iodide flow cytometry cell cycle analysis; assay type: cell-based; conditions: HepG2, 2.6 μM, 24 h
Description: Its impacts on cell cycle progression and induction of apoptosis were investigated. The effect of compound 6c on the regulation of the cell cycle progression was studied using a Propidium Iodide Flow Cytometry Kit assay. Alterations in the cell cycle were recorded after the treatment of HepG2 cells with 2.6 μM of compounds 6c, chosen for its excellent antiproliferative activities within 24 h.
Cell cycle arrest and distribution were evaluated using a Propidium Iodide Flow Cytometry Kit (ab139418, Abcam, Cambridge, MA, USA) followed by flow cytometry analysis.
3.4.3. Flow cytometry cell cycle analysis
Cell cycle arrest and distribution were evaluated using the Propidium Iodide Flow Cytometry Kit (ab139418, Abcam) followed by flow cytometry analysis.[45,46] First, HepG2 cells were cultured at a density of 2 × 10^5/well for 24 h in the presence of tested newly synthesized compounds 6c (2.6 μM) (control cells were left untreated and both measurements were done in triplicate). Then, the attached cells were supplemented with trypsin, washed with ice-cold PBS, centrifuged, and fixed using ice -cold 70% ethanol. Next, cells were re -suspended and stored at +4 °C for at least 2 h. After that, cells were incubated with 200 μL 1X Propidium Iodide (PI) + RNase Staining Solution for 30 min at 37 °C in the dark. The DNA content in each cell nucleus was determined by Epics XL -MCL™ flow cytometer (Beckman -Coulter, USA). Finally, cell cycle phase distribution was analyzed using Flowing software 2.5.1 (Turku Centre for Biotechnology, University of Turku, Turku, Finland). […]
University of Turku, Turku, Finland).

[9] = target: EGFR (Homo sapiens, UniProt P00533); assay: In vitro EGFR kinase inhibitory assay (BPS kit, Kinase-Glo)
Sequence of EGFR (P00533 25-1210): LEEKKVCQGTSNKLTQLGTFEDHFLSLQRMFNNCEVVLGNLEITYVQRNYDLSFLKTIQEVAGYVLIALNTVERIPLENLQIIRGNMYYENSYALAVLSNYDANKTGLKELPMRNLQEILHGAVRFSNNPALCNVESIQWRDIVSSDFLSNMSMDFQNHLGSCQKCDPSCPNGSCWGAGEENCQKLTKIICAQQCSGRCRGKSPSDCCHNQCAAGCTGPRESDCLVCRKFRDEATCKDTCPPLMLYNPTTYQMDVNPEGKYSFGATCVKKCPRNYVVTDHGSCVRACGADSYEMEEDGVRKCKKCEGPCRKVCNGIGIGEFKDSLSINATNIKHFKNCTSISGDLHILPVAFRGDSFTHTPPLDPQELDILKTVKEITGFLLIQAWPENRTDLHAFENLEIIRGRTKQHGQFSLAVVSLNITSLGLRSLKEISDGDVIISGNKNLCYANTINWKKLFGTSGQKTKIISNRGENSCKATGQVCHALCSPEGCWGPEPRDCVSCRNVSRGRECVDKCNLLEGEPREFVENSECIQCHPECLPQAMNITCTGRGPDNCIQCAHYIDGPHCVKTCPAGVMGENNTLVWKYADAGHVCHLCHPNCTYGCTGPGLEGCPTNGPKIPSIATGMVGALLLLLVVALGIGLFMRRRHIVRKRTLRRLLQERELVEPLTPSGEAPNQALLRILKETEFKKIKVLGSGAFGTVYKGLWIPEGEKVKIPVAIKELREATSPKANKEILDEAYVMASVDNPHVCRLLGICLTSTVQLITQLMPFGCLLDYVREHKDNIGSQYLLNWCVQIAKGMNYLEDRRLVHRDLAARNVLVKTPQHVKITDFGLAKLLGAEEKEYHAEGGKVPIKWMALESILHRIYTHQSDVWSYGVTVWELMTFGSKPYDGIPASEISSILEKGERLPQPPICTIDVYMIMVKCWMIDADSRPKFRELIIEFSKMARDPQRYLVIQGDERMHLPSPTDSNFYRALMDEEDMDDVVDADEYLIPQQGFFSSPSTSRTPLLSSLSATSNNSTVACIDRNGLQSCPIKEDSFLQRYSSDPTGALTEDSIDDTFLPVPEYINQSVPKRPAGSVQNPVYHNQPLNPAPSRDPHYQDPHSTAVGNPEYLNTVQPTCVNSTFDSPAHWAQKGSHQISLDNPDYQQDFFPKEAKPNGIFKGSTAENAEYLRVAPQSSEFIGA
Description: as §21, §22, §23, §24, §25, §26

[10] = target: T1, VEGFR-2 (Homo sapiens, UniProt P35968); assay: In vitro VEGFR-2 kinase inhibitory assay (BPS kit, Kinase-Glo); assay type: biochemical; conditions: 40 min at 30 °C
T1 construct: purchased BPS Biosciences, San Diego, CA, USA
T1 sequence (P35968 20-1356): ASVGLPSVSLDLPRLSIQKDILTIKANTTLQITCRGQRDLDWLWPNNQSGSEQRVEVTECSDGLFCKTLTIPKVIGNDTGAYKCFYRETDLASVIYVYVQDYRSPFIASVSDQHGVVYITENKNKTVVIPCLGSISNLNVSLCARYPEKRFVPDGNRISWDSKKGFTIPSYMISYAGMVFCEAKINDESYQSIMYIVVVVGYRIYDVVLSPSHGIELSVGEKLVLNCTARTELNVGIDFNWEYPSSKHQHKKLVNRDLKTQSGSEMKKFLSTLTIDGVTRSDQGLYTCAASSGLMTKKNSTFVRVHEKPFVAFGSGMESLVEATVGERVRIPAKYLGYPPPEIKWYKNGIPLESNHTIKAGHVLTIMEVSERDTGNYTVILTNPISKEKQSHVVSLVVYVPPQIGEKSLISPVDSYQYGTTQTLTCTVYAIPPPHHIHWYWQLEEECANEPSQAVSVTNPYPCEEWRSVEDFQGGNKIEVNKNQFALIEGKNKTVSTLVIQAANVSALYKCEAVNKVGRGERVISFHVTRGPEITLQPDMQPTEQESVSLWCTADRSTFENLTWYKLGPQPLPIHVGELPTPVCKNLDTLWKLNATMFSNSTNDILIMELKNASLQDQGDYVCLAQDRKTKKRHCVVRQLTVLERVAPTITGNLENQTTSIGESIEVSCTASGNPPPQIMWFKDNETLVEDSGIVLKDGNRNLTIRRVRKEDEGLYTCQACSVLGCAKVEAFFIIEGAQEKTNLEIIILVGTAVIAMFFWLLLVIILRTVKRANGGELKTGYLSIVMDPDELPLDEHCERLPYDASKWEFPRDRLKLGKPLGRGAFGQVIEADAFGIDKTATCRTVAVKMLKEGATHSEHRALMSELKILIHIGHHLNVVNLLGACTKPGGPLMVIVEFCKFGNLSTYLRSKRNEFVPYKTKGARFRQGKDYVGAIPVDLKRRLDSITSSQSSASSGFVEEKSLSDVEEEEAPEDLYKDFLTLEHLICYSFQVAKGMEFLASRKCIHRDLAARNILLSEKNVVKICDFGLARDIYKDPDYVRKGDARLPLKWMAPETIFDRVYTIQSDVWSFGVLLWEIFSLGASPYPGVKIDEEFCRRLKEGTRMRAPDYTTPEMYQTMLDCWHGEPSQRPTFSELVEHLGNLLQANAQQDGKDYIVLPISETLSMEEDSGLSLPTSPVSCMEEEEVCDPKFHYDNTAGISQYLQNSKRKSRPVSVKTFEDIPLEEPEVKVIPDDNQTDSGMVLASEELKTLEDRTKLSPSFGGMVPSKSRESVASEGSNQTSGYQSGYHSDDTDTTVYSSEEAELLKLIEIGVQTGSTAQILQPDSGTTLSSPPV

[11] = target: T2, CDK2 (Homo sapiens, UniProt P24941); assay: In vitro CDK2 kinase inhibitory assay (BPS kit, Kinase-Glo); assay type: biochemical; conditions: 40 min at 30 °C
T2 construct: purchased BPS Biosciences, San Diego, CA, USA

[12] = test system: Caspase-9; assay: RT-qPCR gene expression analysis, caspase-9; assay type: cell-based; conditions: HepG2, RT-qPCR, fold vs untreated = 1
Text: as §15, §16, §17, §18, §19, §20

[13] = test system: Bax; assay: RT-qPCR gene expression analysis, Bax; assay type: cell-based; conditions: HepG2, RT-qPCR, fold vs untreated = 1
Text: as §15, §16, §17, §18, §19, §20

[14] = test system: HepG2 cells; assay: Annexin V-FITC/PI dual-staining apoptosis assay; assay type: cell-based; conditions: HepG2, 2.6 μM (IC50), 24 h
Description: Apoptosis can be detected by measuring translocated phosphatidylserine (PS) from the interior to the surface of the cell membrane. Therefore, an annexin V-FITC/PI (fluorescein–isothiocyanate/propidium iodide) dual staining flow cytometric assay was carried out for compound 6c to investigate the mechanism of cell death induced by the assessed compound.
The apoptosis assay was performed with an annexin V-FITC/PI double staining apoptosis detection kit (K101, BioVision Inc., Mountain View, CA, USA) using a flow cytometer. Experimental procedures are described in detail in theSupplementary Information. […]
3.4.4. Annexin V-FITC Dual-Staining Apoptosis Assay
Apoptosis assay was performed with an Annexin V-FITC / PI double staining apoptosis detection kit (K101, BioVision Inc, Mountain View, CA, USA) using a flow cytometer.[47,48] […]
concentration (2.6 μM) for 24 h. After treatment, the cells were collected, washed two times with PBS, and resuspended in 500 µL binding buffer. Next, annexin V-FITC (5 µL ) and propidium iodide (PI) 5 µL were intruduced to the suspension and the cells were left in the dark for 15 min at room temperature. Samples were then recorded by Epics XL-MCL™ flow cytometer (Beckman- Coulter, USA) and Flowing software (Turku Centre for Biotechnology, University of Turku, Turku, Finland).

[15] = test system: Caspase-3; assay: RT-qPCR gene expression analysis, caspase-3; assay type: cell-based; conditions: HepG2, RT-qPCR, fold vs untreated = 1
Text: as §15, §16, §17, §18, §19, §20

Row | SMILES | IC50 [1] | IC50 [2] | IC50 [3] | IC50 [4] | IC50 [5] | further results
1 | O=C1Nc2ccccc2/C1=N/NC(=O)c1ccc(Nc2ncnc3ccccc23)cc1 [Compound 6a, (Z)-N′-(2-Oxoindolin-3-ylidene)-4-(quinazolin-4-ylamino) benzohydrazide] | 6.24 ± 0.5 µM | 4.89 ± 0.3 µM | 7.98 ± 0.6 µM | 34.1 ± 2.6 µM | 13.1 ± 0.9 µM | 
2 | O=C1Nc2ccc(Cl)cc2/C1=N/NC(=O)c1ccc(Nc2ncnc3ccccc23)cc1 [Compound 6b, (Z)-N′-(5-Chloro-2-oxoindolin-3-ylidene)-4-(quinazolin-4-ylamino)benzohydrazide] | 56.3 ± 3.2 µM | 70.7 ± 3.4 µM | 61.4 ± 3.5 µM | > 100 µM | 66.8 ± 3.4 µM | 
3 | O=C1Nc2ccc(F)cc2/C1=N/NC(=O)c1ccc(Nc2ncnc3ccccc23)cc1 [Compound 6c, (Z)-N′-(5-Fluoro-2-oxoindolin-3-ylidene)-4-(quinazolin-4-ylamino)benzohydrazide] | 5.18 ± 0.4 µM | 3.78 ± 0.2 µM | 2.61 ± 0.1 µM | 57.3 ± 3.3 µM | 7.6 ± 0.5 µM | IC50 [6]: 138 ± 70 nM; Protein Expression (Normalized to β-Actin) Bcl-2 [7]: 0.185; Cell Cycle Distribution (%) % Sub-G1 [8]: 42.79%; Cell Cycle Distribution (%) %G0–G1 [8]: 36.47%; Cell Cycle Distribution (%) %G2/M [8]: 9.92%; Cell Cycle Distribution (%) %S [8]: 53.61%; IC50 [9]: 83 ± 5 nM; IC50 [10]: 76 ± 4 nM; IC50 [11]: 183 ± 10 nM; Protein Expression (Normalized to β-Actin) Caspase-9 [12]: 2.795; Protein Expression (Normalized to β-Actin) Bax [13]: 4.585; Necrosis [14]: 2.94; Apoptosis Induction Analysis Early ([14]; in % (unit assumed)): 28.64; Apoptosis Induction Analysis Late ([14]; in % (unit assumed)): 11.21; Apoptosis Induction Analysis Total ([14]; in % (unit assumed)): 42.79; Protein Expression (Normalized to β-Actin) Caspase-3 [15]: 10.13
4 | Cc1ccc2c(c1)/C(=N/NC(=O)c1ccc(Nc3ncnc4ccccc34)cc1)C(=O)N2 [Compound 6d, (Z)-N′-(5-Methyl-2-oxoindolin-3-ylidene)-4-(quinazolin-4-ylamino)benzohydrazide] | 82.7 ± 4.3 µM | > 100 µM | 87.4 ± 4.5 µM | 65.8 ± 3.8 µM | > 100 µM | 
5 | COc1cccc2c1C(=O)c1c(O)c3c(c(O)c1C2=O)C[C@@](O)(C(=O)CO)C[C@@H]3O[C@H]1C[C@H](N)[C@H](O)[C@H](C)O1 [Doxorubicin, reference compound] |  |  | 4.5 ± 0.2 µM |  |  | 
6 | CN[C@@H]1C[C@H]2O[C@@](C)([C@@H]1OC)n1c3ccccc3c3c4c(c5c6ccccc6n2c5c31)C(=O)NC4 [Staurosporine, reference compound] |  |  |  |  |  | Protein Expression (Normalized to β-Actin) Bcl-2 [7]: 0.351; Protein Expression (Normalized to β-Actin) Caspase-9 [12]: 4.614; Protein Expression (Normalized to β-Actin) Bax [13]: 6.794; Protein Expression (Normalized to β-Actin) Caspase-3 [15]: 8.43
7 | CCN(CC)CCNC(=O)c1c(C)[nH]c(/C=C2\C(=O)Nc3ccc(F)cc32)c1C [Sunitinib, reference compound] | 8.41 ± 0.7 µM | 5.19 ± 0.4 µM | 6.82 ± 0.5 µM | 43 ± 2.9 µM | 7.48 ± 0.6 µM | 
